Laboratory results reported in patent US9273028B2, “Heterocyclic tyrosine kinase inhibitors” (Biogen MA Inc., priority 2010, dated 2016).

Legend:
Type in all cases: biochemical
BTK = target: T1, BTK (Homo sapiens, UniProt Q06187); assay: In vitro BTK kinase assay (BTK-POLYGAT-LS); conditions: IC50 (10 uM ATP)
T1 construct: purchased Upstate 14-552
Summary of the method: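 Poly-GAT peptide at 100 nM with 10 μM ATP (final) in pH 7.5 Tris buffer containing MgCl2, DTT, Triton X-100 and 0.2 mg/ml casein.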

Lck = target: T2, Lck (Homo sapiens, UniProt P06239); assay: Lck kinase selectivity assay (Example 142 procedure, Table 3 modifications); conditions: ATP 5 μM
T2 construct: purchased Carna Bioscience 08-170
T2 sequence (P06239 whole entry): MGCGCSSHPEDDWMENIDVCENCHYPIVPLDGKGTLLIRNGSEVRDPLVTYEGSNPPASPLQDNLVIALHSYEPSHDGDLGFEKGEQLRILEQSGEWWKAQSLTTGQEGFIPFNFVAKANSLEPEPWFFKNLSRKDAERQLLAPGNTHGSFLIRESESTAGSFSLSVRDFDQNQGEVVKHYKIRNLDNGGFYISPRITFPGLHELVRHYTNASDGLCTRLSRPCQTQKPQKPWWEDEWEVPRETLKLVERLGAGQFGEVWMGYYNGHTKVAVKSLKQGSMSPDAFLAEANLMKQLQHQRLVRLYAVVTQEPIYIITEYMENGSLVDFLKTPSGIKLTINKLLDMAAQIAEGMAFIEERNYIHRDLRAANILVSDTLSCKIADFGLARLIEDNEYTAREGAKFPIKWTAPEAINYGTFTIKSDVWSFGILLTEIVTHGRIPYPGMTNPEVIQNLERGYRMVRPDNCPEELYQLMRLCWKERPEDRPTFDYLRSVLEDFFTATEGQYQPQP
Method: (§1) The purpose of the Tec in vitro assay is to determine compound potency against Tec through the measurement of IC50. Compound inhibition is measured after monitoring the amount of phosphorylation of a fluorescein-labeled polyGT peptide (Invitrogen PV3610) in the presence of active Tec enzyme (Carna Biosciences 08-182), ATP, and inhibitor. The Tec kinase reaction was done in a black 96 well plate (costar 3694). For a typical assay, a 29 μL aliquot of a ATP/peptide master mix (final concentration; ATP 25 μM, polyGT 100 nM) in kinase buffer (10 mM Tris-HCl pH 7.5, 10 mM MgCl2, 200 μM Na3PO4, 5 mM DTT, 0.01% Triton X-100, and 0.2 mg/ml casein) is added to each well. Next, 1 μL of a 3-fold, 50× compound titration in 100% DMSO solvent is added, followed by adding 20 uL of Tec enzyme mix in 1× kinase buffer (with a final concentration of 0.125 nM). The assay is incubated for 15 minutes before being stopped with 5 μl, of a 220 mM EDTA solution. Aliquots (5 μL) of the kinase reaction are transferred to a low volume white 384 well plate (Corning 3674), and 5 μL of a 2× detection buffer (Invitrogen PV3574, with 2 nM Tb-PY20 antibody, Invitrogen PV3552) is added. The plate is covered and incubated for 45 minutes at room temperature. Time resolved fluorescence (TRF) on Molecular Devices M5 (332 nm excitation; 488 nm emission; 518 nm fluorescein emission) is measured.
(§2) Using the procedure described in Example 142, with the modifications shown in Table 3, selectivity for Itk, Txk, and Lck was measured.

Itk = target: T3, Itk (Homo sapiens, UniProt Q08881); assay: Itk kinase selectivity assay (Example 142 procedure, Table 3 modifications); conditions: ATP 10 μM
T3 construct: purchased Carna Bioscience 08-181
T3 sequence (Q08881 1-620): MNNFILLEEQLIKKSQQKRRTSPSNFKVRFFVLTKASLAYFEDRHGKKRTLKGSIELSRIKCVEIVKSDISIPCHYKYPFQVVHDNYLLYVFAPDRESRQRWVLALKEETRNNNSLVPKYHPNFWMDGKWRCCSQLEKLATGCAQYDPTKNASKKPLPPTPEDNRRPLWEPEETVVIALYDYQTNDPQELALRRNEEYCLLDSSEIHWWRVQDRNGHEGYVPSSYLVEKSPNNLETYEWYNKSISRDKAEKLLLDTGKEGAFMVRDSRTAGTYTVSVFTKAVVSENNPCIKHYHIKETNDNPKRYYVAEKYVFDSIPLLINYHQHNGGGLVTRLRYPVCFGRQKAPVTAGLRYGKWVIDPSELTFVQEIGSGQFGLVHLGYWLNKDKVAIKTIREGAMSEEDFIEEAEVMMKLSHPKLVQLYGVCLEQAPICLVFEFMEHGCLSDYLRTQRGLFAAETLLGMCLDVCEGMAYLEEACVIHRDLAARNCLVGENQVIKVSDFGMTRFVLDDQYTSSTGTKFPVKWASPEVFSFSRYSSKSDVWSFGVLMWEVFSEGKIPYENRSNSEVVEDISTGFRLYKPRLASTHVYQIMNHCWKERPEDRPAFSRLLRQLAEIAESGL
Method: as §1, §2

Txk = target: T4, Txk (Homo sapiens, UniProt P42681); assay: Txk kinase selectivity assay (Example 142 procedure, Table 3 modifications); conditions: ATP 100 μM
T4 construct: purchased Carna Bioscience 08-183
T4 sequence (P42681 1-527): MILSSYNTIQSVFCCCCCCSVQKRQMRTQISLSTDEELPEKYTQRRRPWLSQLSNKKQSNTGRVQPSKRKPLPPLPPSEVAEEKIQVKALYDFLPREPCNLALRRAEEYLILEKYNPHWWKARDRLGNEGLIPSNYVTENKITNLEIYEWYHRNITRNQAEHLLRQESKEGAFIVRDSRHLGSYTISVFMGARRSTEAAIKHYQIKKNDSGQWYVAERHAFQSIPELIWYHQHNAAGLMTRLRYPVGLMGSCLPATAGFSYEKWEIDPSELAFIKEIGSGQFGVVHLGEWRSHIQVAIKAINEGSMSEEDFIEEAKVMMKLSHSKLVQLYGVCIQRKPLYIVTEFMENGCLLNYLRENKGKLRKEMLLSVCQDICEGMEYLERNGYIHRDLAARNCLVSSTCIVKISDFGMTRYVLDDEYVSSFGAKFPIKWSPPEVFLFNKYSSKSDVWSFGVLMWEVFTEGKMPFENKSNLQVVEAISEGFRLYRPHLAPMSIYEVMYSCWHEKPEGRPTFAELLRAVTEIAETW
Method: as §1, §2

Tec = target: T5, Tec (Homo sapiens, UniProt P42680); assay: In vitro Tec kinase selectivity assay (Tec-POLYGT-LS); conditions: ATP 25 μM
T5 construct: purchased Carna Biosciences 08-182
T5 sequence (P42680 1-631): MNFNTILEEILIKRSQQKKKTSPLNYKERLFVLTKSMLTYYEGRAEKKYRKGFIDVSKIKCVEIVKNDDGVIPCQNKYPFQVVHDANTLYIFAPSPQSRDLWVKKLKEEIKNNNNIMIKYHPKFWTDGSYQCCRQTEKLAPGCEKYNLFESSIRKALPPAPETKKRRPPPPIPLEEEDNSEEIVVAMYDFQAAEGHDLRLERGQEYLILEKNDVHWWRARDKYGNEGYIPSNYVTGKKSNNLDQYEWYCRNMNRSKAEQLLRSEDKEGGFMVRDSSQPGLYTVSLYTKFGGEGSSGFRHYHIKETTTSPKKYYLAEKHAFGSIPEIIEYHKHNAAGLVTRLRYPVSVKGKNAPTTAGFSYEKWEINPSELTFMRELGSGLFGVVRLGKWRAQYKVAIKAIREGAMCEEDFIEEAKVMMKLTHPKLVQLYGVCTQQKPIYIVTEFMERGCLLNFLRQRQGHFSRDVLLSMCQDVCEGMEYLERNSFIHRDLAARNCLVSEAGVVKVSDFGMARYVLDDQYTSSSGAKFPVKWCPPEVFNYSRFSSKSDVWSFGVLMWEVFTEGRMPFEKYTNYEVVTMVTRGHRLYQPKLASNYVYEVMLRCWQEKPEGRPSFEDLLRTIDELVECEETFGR
Method: In Vitro Tec Kinase Selectivity Assay
as §1

T1 sequence (Q06187 whole entry): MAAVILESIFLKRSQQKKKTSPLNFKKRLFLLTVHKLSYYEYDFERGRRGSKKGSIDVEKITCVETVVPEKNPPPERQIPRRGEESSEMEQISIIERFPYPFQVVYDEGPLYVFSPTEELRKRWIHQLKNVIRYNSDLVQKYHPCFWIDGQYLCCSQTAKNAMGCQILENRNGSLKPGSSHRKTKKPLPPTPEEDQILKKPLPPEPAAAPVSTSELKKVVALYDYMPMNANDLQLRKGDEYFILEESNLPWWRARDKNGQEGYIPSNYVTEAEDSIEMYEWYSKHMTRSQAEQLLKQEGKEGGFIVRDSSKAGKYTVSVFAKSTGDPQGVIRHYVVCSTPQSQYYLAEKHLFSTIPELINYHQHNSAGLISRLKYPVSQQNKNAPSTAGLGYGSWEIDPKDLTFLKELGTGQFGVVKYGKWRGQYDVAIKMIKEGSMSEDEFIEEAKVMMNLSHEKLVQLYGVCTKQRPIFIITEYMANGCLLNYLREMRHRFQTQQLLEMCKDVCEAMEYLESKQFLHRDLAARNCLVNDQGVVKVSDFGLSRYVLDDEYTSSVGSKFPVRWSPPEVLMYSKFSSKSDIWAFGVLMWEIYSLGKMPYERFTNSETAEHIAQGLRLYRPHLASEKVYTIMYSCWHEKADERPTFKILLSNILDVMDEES

| SMILES | IC50 (BTK) | IC50 (Lck) | IC50 (Itk) | IC50 (Txk) | IC50 (Tec) |
| --- | --- | --- | --- | --- | --- |
| O=C(CNc1ccccc1S(=O)(=O)N1CCCCC1)N1CCC2CCN(c3ncnc4[nH]ccc34)C2C1 (stereo not shown) [Compound 113] |  | > 10000 nM | 1000 to 10000 nM | 1000 to 10000 nM | 1000 to 10000 nM |
| O=C(CNc1ccccc1S(=O)(=O)c1ccccc1)N1CCC2CCN(c3ncnc4[nH]ccc34)C2C1 (stereo not shown) [Compound 114] |  | > 10000 nM | 100 to 999 nM | 100 to 999 nM | 100 to 999 nM |
| CN(c1ncnc2[nH]ccc12)C1CCCCN(C(=O)CNc2cc(Cl)cc(Cl)c2)C1 (stereo not shown) [Compound 143] |  | > 10000 nM | > 10000 nM | > 10000 nM | > 10000 nM |
| CN(c1ncnc2[nH]ncc12)C1CCCCN(C(=O)CNc2cc(Cl)cc(Cl)c2)C1 (stereo not shown) [Compound 167] |  | 1000 to 10000 nM | 1000 to 10000 nM | > 10000 nM | 100 to 999 nM |
| O=C(CNc1cc(Cl)cc(Cl)c1)N1CC2CC(Nc3ncnc4[nH]ccc34)C1C2 (stereo not shown) [Compound 174] | < 100 nM | > 10000 nM | > 10000 nM | > 10000 nM | > 10000 nM |
| CC(C)CN(CC(C)C)S(=O)(=O)c1ccccc1NCC(=O)N1CCC[C@@H](Nc2ncnc3[nH]ncc23)C1 [Compound 217] | < 100 nM | 1000 to 10000 nM | 100 to 999 nM | 1000 to 10000 nM | 100 to 999 nM |
| O=C(CNc1cc(Cl)cc(Cl)c1)N1CCC[C@@H](Nc2ncnc3[nH]ccc23)C1 [Compound 220] |  | > 10000 nM | 1000 to 10000 nM | > 10000 nM | 100 to 999 nM |
| O=C(CNc1cc(Cl)cc(Cl)c1)N1CCC[C@@H](Nc2ncnc3[nH]ncc23)C1 [Compound 222] | < 100 nM | 1000 to 10000 nM | 1000 to 10000 nM | > 10000 nM | 100 to 999 nM |

Further lines, results first:

| IC50 (BTK) | IC50 (Lck) | IC50 (Itk) | IC50 (Txk) | IC50 (Tec) | SMILES |
| --- | --- | --- | --- | --- | --- |
| < 100 nM | 100 to 999 nM | 100 to 999 nM | > 10000 nM | 100 to 999 nM | O=C(CNc1cc(Cl)cc(Cl)c1)N1Cc2ccccc2C(Nc2ncnc3[nH]ccc23)C1 (stereo not shown) [Compound 96] |
| < 100 nM | 100 to 999 nM | 100 to 999 nM | 1000 to 10000 nM | 100 to 999 nM | CC[C@@H](Nc1cc(Cl)cc(Cl)c1)C(=O)N1CCC2CCN(c3ncnc4[nH]ccc34)C2C1 (stereo partly shown) [Compound 99] |
| < 100 nM | 100 to 999 nM | 100 to 999 nM | 1000 to 10000 nM | 100 to 999 nM | CCC[C@@H](Nc1cc(F)cc(Cl)c1)C(=O)N1CCC2CCN(c3ncnc4[nH]ccc34)C2C1 (stereo partly shown) [Compound 100] |
|  | 100 to 999 nM | < 100 nM | 100 to 999 nM | < 100 nM | O=C(CNc1cc(Cl)cc(Cl)c1)N1CC[C@H]2CCN(c3ncnc4[nH]ccc34)[C@H]2C1 [Compound 123] |
|  | 100 to 999 nM | 100 to 999 nM | 100 to 999 nM | < 100 nM | O=C(CNc1cc(Cl)cc(Cl)c1)N1CC[C@@H]2CCN(c3ncnc4[nH]ccc34)[C@@H]2C1 [Compound 124] |
| < 100 nM | 100 to 999 nM | 1000 to 10000 nM | 1000 to 10000 nM | 1000 to 10000 nM | O=C([C@H](Nc1cc(Cl)cc(Cl)c1)C1CC1)N1CCC2CCN(c3ncnc4[nH]ccc34)C2C1 (stereo partly shown) [Compound 176] |
|  | 100 to 999 nM | < 100 nM | 100 to 999 nM | < 100 nM | O=C(CNc1cc(Cl)cc(Cl)c1)N1CCC2CCN(c3ncnc4[nH]ccc34)C2C1 (stereo not shown) [Compound 183] |
| < 100 nM | 100 to 999 nM | 100 to 999 nM | 1000 to 10000 nM | 100 to 999 nM | O=C(CNc1cc(Cl)cc(Cl)c1)N1CCC2CCN(c3ncnc4[nH]ncc34)C2C1 (stereo not shown) [Compound 192] |
|  | 100 to 999 nM | 100 to 999 nM | 1000 to 10000 nM | 100 to 999 nM | CN(c1ncnc2[nH]ccc12)[C@@H]1CCCN(C(=O)CNc2cc(Cl)cc(Cl)c2)C1 [Compound 209] |
